Source: patent US9237744B2, “Preservative solution for cells, tissues and organs containing rare sugar and preservative method thereof” (NATIONAL UNIVERSITY CORPORATION KAGAWA UNIVERSITY, priority 2004, dated 2016)

What was measured:
[1] = test system: HFB (human fibroblast); experiment: Survival rate of cells after freeze-preservation at −80° C. for 24 hours, trypan blue (Example 1); format: cell-based; conditions: concentration 50 mM (foregoing studies)
Experimental: 1. Cells used: Hela (human cervical cancer), OVCAR-3 (human ovarian cancer), HuH-7 (human liver cancer), HaCaT (human skin keratinocyte), HFB (human fibroblast) and NIH3T3 (mouse fibroblast). Saccharides D-allose and the like were added to culture medium, Cell Banker (commercially available preservative solution) and DMSO at concentrations of 25 mM and 50 mM. Monosaccharides such as D-glucose, D-fructose, D-mannose and D-galactose which are present in nature in large quantities and D-allose, D-psicose, D-altrose, allitol, D-talitol and L-sorbose as rare sugars were used. Further, trehalose as disaccharide was used. The cells were preserved for 24 hours by being frozen at −80° C. 1) Survival rate of cells: One day later, the cells were thawed, and the survival rate was estimated by trypan blue dying method.

[2] = test system: NIH3T3, OVCAR-3, HaCaT and HFB cells; experiment: Cell preservation with DMSO plus rare sugar, growth after thawing (Example 1); format: cell-based, human, mouse; conditions: DMSO decreased to 1%, sub-optimal condition (FIG. 4, FIG. 5)
Experimental: 1. Cells used: Hela (human cervical cancer), OVCAR-3 (human ovarian cancer), HuH-7 (human liver cancer), HaCaT (human skin keratinocyte), HFB (human fibroblast) and NIH3T3 (mouse fibroblast). Saccharides D-allose and the like were added to culture medium, Cell Banker (commercially available preservative solution) and DMSO at concentrations of 25 mM and 50 mM. Monosaccharides such as D-glucose, D-fructose, D-mannose and D-galactose which are present in nature in large quantities and D-allose, D-psicose, D-altrose, allitol, D-talitol and L-sorbose as rare sugars were used. Further, trehalose as disaccharide was used. The cells were preserved for 24 hours by being frozen at −80° C. 2) Cell growth: One day later, the cells were thawed, and 0.25˜2×10^4 cells/well were spread on 96-well plate with 0.1 mL medium. After a prescribed period of time, the cell growth was measured by MTT assay. 4) Since DMSO (dimethyl sulfoxide) is also commonly added to culture medium at a rate of 10% and used in freeze-preservation, the effect of rare sugar was examined in the system of DMSO. The difference in effect of rare sugar is hardly observed in a system using 10% DMSO, the effect of cell preservation was comparatively examined under a sub-optimal condition by decreasing the concentration of DMSO to 1%. NIH3T3, OVCAR-3, HaCaT and HFB cells and the like were used. […]

[3] = test system: Hela, OVCAR-3, HaCaT, HFB and NIH3T3 cells; experiment: Survival rate of cells after freeze-preservation at high sugar concentration, trypan blue (Example 2); format: cell-based, human, mouse
Experimental: (§1) 1. Cells used: Hela (human cervical cancer), OVCAR-3 (human ovarian cancer), HaCaT (human skin keratinocyte), HFB (human fibroblast) and NIH3T3 (mouse fibroblast). Saccharides D-allose and the like were added to culture medium, Cell Banker (commercially available preservative solution) and DMSO at concentrations of 0.2, 0.4, 0.6, 0.8 and 1M. Monosaccharides such as D-glucose, D-fructose, D-mannose and D-galactose which are present in nature in large quantities and D-allose, D-altrose, D-psicose, L-psicose, D-sorbose, L-sorbose, D-tagatose, L-tagatose and L-fructose as rare sugars were used. Further, trehalose as disaccharide was used. The cells frozen with D-allose were freeze-preserved at −80° C. and in liquid nitrogen for 24 hours, 1 week and 4 weeks. 1) Survival rate of cells: The cells were thawed, and the survival rate was estimated by a trypan blue dying method.

[4] = test system: OVCAR-3, HaCaT and HDF cells; experiment: Cell survival rate with D-allose combined with DMSO at low concentration (Example 2); format: cell-based, human; conditions: 1 or 2% of DMSO with addition of D-allose (FIG. 9)
Experimental: as §1, with “method. 6) The effect of cell preservation under sub-optimal conditions by reducing the concentration of DMSO to 1, 2 or 3% was comparatively examined. OVCAR-3, HaCaT and HDF cells were used as cells. Regarding the preservation effect with DMSO, it was confirmed that the survival rate was approximately 70% or more with the use of 1 or 2% of DMSO by addition of D-allose (FIG. 9).” for “method.”

[5] = test system: EGF mRNA; experiment: Kidney preservation in UW solution at 4° C., EGF mRNA by northern blot; parameters: species or system rat; conditions: D-allose 5 mg/ml in UW solution, in 48 hours and 78 hours (FIG. 11)
Experimental: Object: male rats, 200 g to 280 g Preparations of experiment: A rat is fasted 12 hours before the experiment. After the rat is anesthetized by intraperitoneal administration of nenbutal, the stomach is shaved with an electric razor, cleaned with ether, and cut open. The abdominal aorta upper the renal artery is clamped. The UW solution is adapted to be perfused from the abdominal aorta under the renal artery. Grouping: Control group: UW solution only, D-allose group: D-allose is added to the UW solution at a concentration of 5 mg/ml. Experimental method: In the control group and the D-allose group, the kidney is withdrawn after perfusion of the UW solution in each group, put in the UW solution of each of the control group and the D-allose group, […] Estimation: Expression of detrimental factor ICAM-1 and regeneration factor EGF in mRNA was examined by northern blot.

[6] = test system: CINC-1; experiment: Renal ischemic reperfusion model, CINC-1 protein amount; format: in vivo, rat; conditions: 400 mg/kg intravenously 30 minutes before renal ischemia, 45 minutes clamp (FIG. 12)
Experimental: Object: male rats with a body weight of 200˜250 g Experimental method: After anesthetization of a rat with nenbutal, a renal ischemic model is prepared. Renal ischemic model: After extraction of the right kidney, the left kidney blood vessel is clamped for 45 minutes. 400 mg/kg of the solution is intravenously administered to the D-allose group 30 minutes before the renal ischemia. A raw feed is administered to the control group. Estimation: Change with time of a CINC-1 protein amount and MPO as an index of accumulation of leukocytes after ischemic reperfusion

## O=C[C@H](O)[C@H](O)[C@H](O)[C@H](O)CO [D-allose]
[1]
  improvement effect as preservative agent: no great improvement effect was obtained
[2]
  effect of preservation with DMSO: improved
[3]; 0, 0.2, 0.4, 0.6, 0.8 and 1M, comparison under way, tendency
  cell survival rate after thawing in comparison with other rare sugars: the highest
[3]; D-allose added to 10% DMSO and Cell Banker, compared with DMSO and Cell Banker
  survival rate of cells: the higher the concentration of D-allose, the lower the survival rate of cells
[3]; D-allose-containing freeze-preservative agent
  optimum preservation temperature: −80 °C
[3]; freeze-preservation extended by one month
  survival rate of cells with extended time of freeze-preservation: not changed so much
[3]; sugar-containing medium in comparison with medium alone (FIG. 7)
  number of cells survived (trypan blue dying): large
[3]; −80° C. versus liquid nitrogen
  survival rate by temperature of freeze-preservation: much higher
[4]
  survival rate: ≥ 70%
[5]
  expression of EGF mRNA during kidney preservation: still maintained
[6]
  CINC-1 protein amount after ischemic reperfusion: significantly decreased
